{"source": "PubChem BioAssay AID1745844", "about": "(Carcinogenic Potency Database (CPDB), 2022)", "test_system": "rodent lifetime carcinogenesis bioassay, tumor incidence TD50", "experiment": "carcinogenic potency in animals, long-term in vivo studies, CPDB compilation (AID 1745844)", "note": "Active and inactive are the calls of the source. The rule behind the calls is not given here.", "data": [{"smiles": "C=Cc1ccccc1", "values": [{"measurement": "TD50", "setting": "mouse, strain B6C3F1, females, by gavage, site: any site (literature study), lesion: several types, types named in the paper, dosed 78 weeks, study length 91 weeks", "value": 625, "unit": "mg/kg/day"}, {"measurement": "TD50", "setting": "mouse, strain B6C3F1, females, by gavage, site: liver, lesion: hepatocellular adenoma + hepatocellular carcinoma + neoplastic nodule, dosed 78 weeks, study length 91 weeks", "value": 905, "unit": "mg/kg/day"}, {"measurement": "TD50", "setting": "mouse, strain B6C3F1, females, by gavage, site: liver, lesion: hepatocellular adenoma, dosed 78 weeks, study length 91 weeks", "value": "905 mg/kg/day (inactive)"}, {"measurement": "TD50", "setting": "mouse, strain B6C3F1, females, by gavage, site: lung, lesion: alveolar/bronchiolar adenoma + alveolar/bronchiolar carcinoma, dosed 78 weeks, study length 91 weeks", "value": 1380, "unit": "mg/kg/day"}, {"measurement": "TD50", "setting": "mouse, strain B6C3F1, males, by gavage, site: any site (literature study), lesion: several types, types named in the paper, dosed 78 weeks, study length 91 weeks", "value": 659, "unit": "mg/kg/day"}, {"measurement": "TD50", "setting": "mouse, strain B6C3F1, males, by gavage, site: liver, lesion: hepatocellular adenoma + hepatocellular carcinoma + neoplastic nodule, dosed 78 weeks, study length 91 weeks", "value": 895, "unit": "mg/kg/day"}, {"measurement": "TD50", "setting": "mouse, strain B6C3F1, males, by gavage, site: lung, lesion: alveolar/bronchiolar adenoma + alveolar/bronchiolar carcinoma, dosed 78 weeks, study length 91 weeks", "value": 360, "unit": "mg/kg/day"}, {"measurement": "TD50", "setting": "mouse, strain Charles River CD1, females, inhaled, site: any site (literature study), lesion: several types, types named in the paper, dosed 98 weeks, study length 98 weeks", "value": 400, "unit": "mg/kg/day"}, {"measurement": "TD50", "setting": "mouse, strain Charles River CD1, females, inhaled, site: liver, lesion: several types, types named in the paper, dosed 98 weeks, study length 98 weeks", "value": 13600, "unit": "mg/kg/day"}, {"measurement": "TD50", "setting": "mouse, strain Charles River CD1, females, inhaled, site: lung, lesion: alveolar/bronchiolar adenoma, dosed 98 weeks, study length 98 weeks", "value": 331, "unit": "mg/kg/day"}, {"measurement": "TD50", "setting": "mouse, strain Charles River CD1, females, inhaled, site: lung, lesion: alveolar/bronchiolar carcinoma, dosed 98 weeks, study length 98 weeks", "value": 1300, "unit": "mg/kg/day"}, {"measurement": "TD50", "setting": "mouse, strain Charles River CD1, males, inhaled, site: any site (literature study), lesion: several types, types named in the paper, dosed 104 weeks, study length 105 weeks", "value": 209, "unit": "mg/kg/day"}, {"measurement": "TD50", "setting": "mouse, strain Charles River CD1, males, inhaled, site: liver, lesion: hepatocellular carcinoma, dosed 104 weeks, study length 105 weeks", "value": 2860, "unit": "mg/kg/day"}, {"measurement": "TD50", "setting": "mouse, strain Charles River CD1, males, inhaled, site: lung, lesion: alveolar/bronchiolar adenoma, dosed 78 weeks, study length 78 weeks", "value": 465, "unit": "mg/kg/day"}, {"measurement": "TD50", "setting": "mouse, strain Charles River CD1, males, inhaled, site: lung, lesion: alveolar/bronchiolar adenoma, dosed 104 weeks, study length 105 weeks", "value": 154, "unit": "mg/kg/day"}, {"measurement": "TD50", "setting": "mouse, strain Charles River CD1, males, inhaled, site: lung, lesion: alveolar/bronchiolar carcinoma, dosed 104 weeks, study length 105 weeks", "value": 1770, "unit": "mg/kg/day"}, {"measurement": "TD50", "setting": "rat, strain Charles River CD (Sprague-Dawley), females, inhaled, site: liver, lesion: hepatocellular adenoma, dosed 104 weeks, study length 106 weeks", "value": "12200 mg/kg/day (inactive)"}, {"measurement": "carcinogen call", "setting": "rat, strain Charles River CD (Sprague-Dawley), females, inhaled, site: liver, lesion: one or several types, types not named, dosed 52 weeks, study length 52 weeks", "value": "negative (inactive)"}, {"measurement": "carcinogen call", "setting": "rat, strain Charles River CD (Sprague-Dawley), males, inhaled, site: liver, lesion: one or several types, types not named, dosed 52 weeks, study length 52 weeks", "value": "negative (inactive)"}, {"measurement": "TD50", "setting": "rat, strain Charles River CD (Sprague-Dawley), males, inhaled, site: liver, lesion: several types, types named in the paper, dosed 104 weeks, study length 106 weeks", "value": "9930 mg/kg/day (inactive)"}, {"measurement": "carcinogen call", "setting": "rat, strain Fischer 344, females, by gavage, site: any site (literature study), lesion: several types, types named in the paper, dosed 90 weeks, study length 97 weeks", "value": "negative (inactive)"}, {"measurement": "TD50", "setting": "rat, strain Fischer 344, females, by gavage, site: liver, lesion: hepatocellular adenoma + hepatocellular carcinoma + neoplastic nodule, dosed 90 weeks, study length 97 weeks", "value": 25200, "unit": "mg/kg/day"}, {"measurement": "TD50", "setting": "rat, strain Fischer 344, males, by gavage, site: any site (literature study), lesion: several types, types named in the paper, dosed 90 weeks, study length 97 weeks", "value": "3410 mg/kg/day (inactive)"}, {"measurement": "TD50", "setting": "rat, strain Sprague-Dawley, females, by gavage, site: any site (literature study), lesion: several types, types named in the paper, dosed 52 weeks, study length 104 weeks", "value": 12, "unit": "mg/kg/day"}, {"measurement": "TD50", "setting": "rat, strain Sprague-Dawley, females, inhaled, site: any site (literature study), lesion: malignant tumor, dosed 52 weeks, study length 104 weeks", "value": 205, "unit": "mg/kg/day"}, {"measurement": "TD50", "setting": "rat, strain Sprague-Dawley, females, inhaled, site: any site (literature study), lesion: several types, types named in the paper, dosed 52 weeks, study length 104 weeks", "value": 48.7, "unit": "mg/kg/day"}, {"measurement": "TD50", "setting": "rat, strain Sprague-Dawley, females, inhaled, site: mammary tissue, wider than the gland, lesion: malignant tumor, dosed 52 weeks, study length 104 weeks", "value": 57.1, "unit": "mg/kg/day"}, {"measurement": "TD50", "setting": "rat, strain Sprague-Dawley, females, inhaled, site: mammary tissue, wider than the gland, lesion: several types, types named in the paper, dosed 52 weeks, study length 104 weeks", "value": 23.3, "unit": "mg/kg/day"}, {"measurement": "TD50", "setting": "rat, strain Sprague-Dawley, males, by gavage, site: any site (literature study), lesion: malignant tumor, dosed 52 weeks, study length 104 weeks", "value": 1090, "unit": "mg/kg/day"}, {"measurement": "TD50", "setting": "rat, strain Sprague-Dawley, males, by gavage, site: any site (literature study), lesion: several types, types named in the paper, dosed 52 weeks, study length 104 weeks", "value": 1220, "unit": "mg/kg/day"}, {"measurement": "TD50", "setting": "rat, strain Sprague-Dawley, males, inhaled, site: any site (literature study), lesion: several types, types named in the paper, dosed 52 weeks, study length 104 weeks", "value": 107, "unit": "mg/kg/day"}]}, {"smiles": "C=CCNN", "values": [{"measurement": "TD50", "setting": "mouse, strain Swiss albino, females, in drinking water, site: blood vessels, lesion: angioma, dosed 105 weeks, study length 105 weeks", "value": 163, "unit": "mg/kg/day"}, {"measurement": "TD50", "setting": "mouse, strain Swiss albino, females, in drinking water, site: blood vessels, lesion: several types, types named in the paper, dosed 105 weeks, study length 105 weeks", "value": 119, "unit": "mg/kg/day"}, {"measurement": "TD50", "setting": "mouse, strain Swiss albino, females, in drinking water, site: liver, lesion: several types, types named in the paper, dosed 105 weeks, study length 105 weeks", "value": 234, "unit": "mg/kg/day"}, {"measurement": "TD50", "setting": "mouse, strain Swiss albino, females, in drinking water, site: lung, lesion: adenocarcinoma, dosed 105 weeks, study length 105 weeks", "value": 96, "unit": "mg/kg/day"}, {"measurement": "TD50", "setting": "mouse, strain Swiss albino, females, in drinking water, site: lung, lesion: adenoma, dosed 105 weeks, study length 105 weeks", "value": 46.1, "unit": "mg/kg/day"}, {"measurement": "TD50", "setting": "mouse, strain Swiss albino, females, in drinking water, site: lung, lesion: several types, types named in the paper, dosed 105 weeks, study length 105 weeks", "value": 38.4, "unit": "mg/kg/day"}, {"measurement": "TD50", "setting": "mouse, strain Swiss albino, males, in drinking water, site: liver, lesion: hepatoma, dosed 93 weeks, study length 93 weeks", "value": "274 mg/kg/day (inactive)"}, {"measurement": "TD50", "setting": "mouse, strain Swiss albino, males, in drinking water, site: lung, lesion: adenoma, dosed 93 weeks, study length 93 weeks", "value": 28.9, "unit": "mg/kg/day"}, {"measurement": "TD50", "setting": "mouse, strain Swiss albino, males, in drinking water, site: lung, lesion: several types, types named in the paper, dosed 93 weeks, study length 93 weeks", "value": 30.9, "unit": "mg/kg/day"}]}, {"smiles": "CCCCCN(N=O)C(N)=O", "values": [{"measurement": "TD50", "setting": "rat, strain Donryu, females, in drinking water, site: all sites, lesion: myelocytic leukemia, dosed 65 weeks, study length 65 weeks", "value": 19.9, "unit": "mg/kg/day"}, {"measurement": "TD50", "setting": "rat, strain Donryu, females, in drinking water, site: any site (literature study), lesion: several types, types named in the paper, dosed 65 weeks, study length 65 weeks", "value": 1.93, "unit": "mg/kg/day"}, {"measurement": "TD50", "setting": "rat, strain Donryu, females, in drinking water, site: digestive tract, lesion: several types, types named in the paper, dosed 65 weeks, study length 65 weeks", "value": 1.15, "unit": "mg/kg/day"}, {"measurement": "TD50", "setting": "rat, strain Donryu, females, in drinking water, site: esophagus, lesion: one or several types, types not named, dosed 65 weeks, study length 65 weeks", "value": 0.967, "unit": "mg/kg/day"}, {"measurement": "TD50", "setting": "rat, strain Donryu, females, in drinking water, site: forestomach, lesion: one or several types, types not named, dosed 65 weeks, study length 65 weeks", "value": 1.35, "unit": "mg/kg/day"}, {"measurement": "TD50", "setting": "rat, strain Donryu, females, in drinking water, site: liver, lesion: hepatocellular adenoma, dosed 65 weeks, study length 65 weeks", "value": 13.3, "unit": "mg/kg/day"}, {"measurement": "TD50", "setting": "rat, strain Donryu, females, in drinking water, site: mammary gland, lesion: several types, types named in the paper, dosed 65 weeks, study length 65 weeks", "value": 11.9, "unit": "mg/kg/day"}, {"measurement": "TD50", "setting": "rat, strain Donryu, males, in drinking water, site: all sites, lesion: myelocytic leukemia, dosed 65 weeks, study length 65 weeks", "value": 9.17, "unit": "mg/kg/day"}, {"measurement": "TD50", "setting": "rat, strain Donryu, males, in drinking water, site: any site (literature study), lesion: several types, types named in the paper, dosed 65 weeks, study length 65 weeks", "value": 0.541, "unit": "mg/kg/day"}, {"measurement": "TD50", "setting": "rat, strain Donryu, males, in drinking water, site: digestive tract, lesion: several types, types named in the paper, dosed 65 weeks, study length 65 weeks", "value": 0.532, "unit": "mg/kg/day"}, {"measurement": "TD50", "setting": "rat, strain Donryu, males, in drinking water, site: esophagus, lesion: one or several types, types not named, dosed 65 weeks, study length 65 weeks", "value": 1.44, "unit": "mg/kg/day"}, {"measurement": "TD50", "setting": "rat, strain Donryu, males, in drinking water, site: forestomach, lesion: one or several types, types not named, dosed 65 weeks, study length 65 weeks", "value": 0.532, "unit": "mg/kg/day"}, {"measurement": "TD50", "setting": "rat, strain Fischer 344, females, by gavage, site: forestomach, lesion: one or several types, types not named, dosed 50 weeks, study length 104 weeks", "value": 0.478, "unit": "mg/kg/day"}, {"measurement": "TD50", "setting": "rat, strain Fischer 344, females, by gavage, site: liver, lesion: one or several types, types not named, dosed 50 weeks, study length 104 weeks", "value": 4.7, "unit": "mg/kg/day"}, {"measurement": "TD50", "setting": "rat, strain Fischer 344, females, by gavage, site: lung, lesion: several types, types named in the paper, dosed 50 weeks, study length 104 weeks", "value": 1.09, "unit": "mg/kg/day"}, {"measurement": "TD50", "setting": "rat, strain Fischer 344, females, by gavage, site: mammary gland, lesion: adenocarcinoma, dosed 50 weeks, study length 104 weeks", "value": 2.98, "unit": "mg/kg/day"}, {"measurement": "TD50", "setting": "rat, strain Fischer 344, females, by gavage, site: uterus, lesion: several types, types named in the paper, dosed 50 weeks, study length 104 weeks", "value": 0.934, "unit": "mg/kg/day"}, {"measurement": "TD50", "setting": "rat, strain Fischer 344, males, by gavage, site: all sites, lesion: mesothelioma, dosed 50 weeks, study length 104 weeks", "value": 0.865, "unit": "mg/kg/day"}, {"measurement": "carcinogen call", "setting": "rat, strain Fischer 344, males, by gavage, site: forestomach, lesion: one or several types, types not named, dosed 50 weeks, study length 104 weeks", "value": "positive"}, {"measurement": "TD50", "setting": "rat, strain Fischer 344, males, by gavage, site: lung, lesion: several types, types named in the paper, dosed 50 weeks, study length 104 weeks", "value": 0.546, "unit": "mg/kg/day"}]}, {"smiles": "CC(C)(C)c1cc([N+](=O)[O-])cc([N+](=O)[O-])c1OS(C)(=O)=O", "values": [{"measurement": "TD50", "setting": "rat, strain Sprague-Dawley, females, in feed, site: any site (literature study), lesion: several types, types named in the paper, dosed 52 weeks, study length 52 weeks", "value": 2.66, "unit": "mg/kg/day"}]}]}
